Measurements published in US4820821A, “Novel pyridazinone-imines and their physiologically tolerated addition salts with acids, their preparation and therapeutic agents containing these compounds” (BASF Aktiengesellschaft, priority 1981, dated 1989).
Structures can show the parent of a compound that is named as a salt. Where two headings read alike, the source gives them in different places.

Tests used:
[1] = system: reserpine-induced hypothermia / blood pressure; assay: Quotient ED 50% antidepressive action / ED 20% hypertensive action; format: in vivo, mouse / rat; details: for Q Increase: Table 2, route of hypertensive test not given; for antidepressive and hypertensive action (in words): in vivo; for factor by which the hypertensive dose (ED 20%) is smaller than the antidepressive effective dose (ED 50%): compounds of Table 2;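 as to Q Increase: larger quotient means more selective hypertensive action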
Description: This is evident from the fact that the quotient defined above differs wtih respect to the comparative compounds. […] This arises, inter alia, from the fact that the hypertensive ED 20 constitutes the denominator of the quotient. It is possible that the unforeseeable selective direction of action is attributable to the special substitution,in accordance with the invention, at the 4-imino group.

blood pressure = assay: Effect on the blood pressure: hypertensive action, pithed rat; format: in vivo, male Sprague-Dawley rats; details: for R.A. (relative activity), hypertensive action: amezinium = 1.00; for ED 20% hypertensive action (dose which increases the blood pressure of the pithed rat by 20%) / ED20: dose based on the base; for ED20: Rattus norvegicus, read-out: ED 20% hypertensive action (dose which increases the blood pressure of the pithed rat by 20%)
Experimental: The measurement of the blood pressure in the carotid artery was carried out by means of Statham transducers. The substance was administered in the jugular vein (as an aqueous solution, 1 ml/kg) or intraperitoneally (as a tragacanth suspension, 2 ml/kg). The ED 20% is determined as the dose which increases the blood pressure by 20%.

[2] = system: reserpine-induced hypothermia; assay: Antidepressive action: reserpine antagonism, inhibition of reserpine-induced hypothermia of the mouse; format: in vivo, male Swiss mice; details: for R.A. (relative activity), reserpine antagonism: amezinium = 1.00, oral; for ED 50% (dose which inhibits the reserpine-induced hypothermia of the mouse by 50%) / ED50: dose based on the base; for ED50: Mus musculus, read-out: ED 50% (dose which inhibits the reserpine-induced hypothermia of the mouse by 50%)
Experimental: Antidepressants effect dose-dependent inhibition of this hypotherma. The test substances are administered orally 60 minutes before the administration of reserpine.
The dose which effects 50% inhibition of the reserpine-induced hypothermia is determined, as the ED 50%, from the linear regression between log dose (mg/kg) and relative reduction in hypothermia (Δ%).

[3] = Table 1, oral administration 60 min before reserpine
[4] = ip, Table 1, i.p. administration
[5] = iv, Table 1, i.v. administration

SMILES	Q Increase [1]	Q (quotient ED 50% antidepressive action/ED 20% hypertensive action) ([1]; hypertensive test i.p.)	Q (quotient ED 50% antidepressive action/ED 20% hypertensive action) ([1]; hypertensive test i.v.)	R.A. (relative activity), hypertensive action (blood pressure; Table 1, i.p. administration)	R.A. (relative activity), hypertensive action (blood pressure; Table 1, i.v. administration)	R.A. (relative activity), hypertensive action (blood pressure; Table 2)	R.A. (relative activity), reserpine antagonism ([2]; Table 1)	R.A. (relative activity), reserpine antagonism ([2]; Table 2)	ED20 (blood pressure; [4]) [mg/kg]	ED20 (blood pressure; [5]) [mg/kg]	ED20 (blood pressure; Table 2, route not given) [mg/kg]	ED50 [2, 3] [mg/kg]	ED50 ([2]; Table 2, oral administration) [mg/kg]	further results
Nc1cc[n+](-c2ccccc2)nc1.[O-][Cl+3]([O-])([O-])[O-] [1-phenyl-4-amino-pyridazinium perchlorate, reference compound]	22.22	1.60	22.22	1.48	2.78	2.78	1.83	1.83						Q (quotient ED 50% antidepressive action/ED 20% hypertensive action) ([1]; hypertensive test i.p., listed as Example 1 of German Laid-Open Application DOS No. 2,245,248): 1.6; Q (quotient ED 50% antidepressive action/ED 20% hypertensive action) ([1]; hypertensive test i.v., listed as Example 1 of German Laid-Open Application DOS No. 2,245,248): 22.2; antidepressive and hypertensive action (in words) [1]: have an antidepressive and hypertensive action; ED 20% hypertensive action (dose which increases the blood pressure of the pithed rat by 20%) (blood pressure; Table 1, i.p. administration): 0.25 mg/kg; ED 20% hypertensive action (dose which increases the blood pressure of the pithed rat by 20%) (blood pressure; Table 1, i.v. administration): 0.018 mg/kg; ED 20% hypertensive action (dose which increases the blood pressure of the pithed rat by 20%) (blood pressure; Table 2, route not given): 0.018 mg/kg; ED 50% (dose which inhibits the reserpine-induced hypothermia of the mouse by 50%) [2, 3]: 0.40 mg/kg; ED 50% (dose which inhibits the reserpine-induced hypothermia of the mouse by 50%) ([2]; Table 2, oral administration): 0.40 mg/kg
COc1cc(N)cn[n+]1-c1ccccc1 [Amezinium, 1-phenyl-4-amino-6-methoxypyridazinium methosulfate, reference compound]	14.66	1.98	14.66	1.00	1.00	1.00	1.00	1.00	0.37	0.05	0.05	0.733		factor by which the hypertensive dose (ED 20%) is smaller than the antidepressive effective dose (ED 50%) [1]: 15; Q (quotient ED 50% antidepressive action/ED 20% hypertensive action) ([1]; hypertensive test i.v., listed as amezinium): 14.7; antidepressive and hypertensive action (in words) [1]: have an antidepressive and hypertensive action
CC(=O)N=c1ccn(-c2ccccc2)nc1 [Example 1, 4-acetylimino-1,4-dihydro-1-phenylpyridazine hydrochloride]			2.09		0.16		1.09			0.32		0.67		
CCC(=O)N=c1ccn(-c2ccccc2)nc1 [Example 3, 1,4-dihydro-1-phenyl-4-(propionylimino)-pyridazine hydrochloride]			1.65		0.25		2.22			0.2		0.33		
CC(C)C(=O)N=c1ccn(-c2ccccc2)nc1 [Example 5, 1,4-dihydro-4-isobutyrylimino-1-phenylpyridazine hydrochloride]			1.82		0.23		1.83			0.215		0.4		
CCCCCCCC(=O)N=c1ccn(-c2ccccc2)nc1 [Example 8, 1,4-dihydro-4-octanoylimino-1-phenylpyridazine hydrochloride]	95.09					0.91		0.14			0.055		5.23	
O=C(Cc1ccccc1)N=c1ccn(-c2ccccc2)nc1 [Example 9, 1,4-dihydro-1-phenyl-4-[(phenylacetyl)-imino]-pyridazine hydrochloride]	63.17					0.79		0.18			0.063		3.98	
O=C(N=c1ccn(-c2ccccc2)nc1)C1CC1 [Example 10, 4-(cyclopropylcarbonyl)-imino-1,4-dihydro-1-phenylpyridazine hydrochloride]			3.04		0.11		0.52			0.464		1.41		
O=C(N=c1ccn(-c2ccccc2)nc1)C1CCC1 [Example 11, 4-(cyclobutylcarbonyl)-imino-1,4-dihydro-1-phenylpyridazine hydrochloride]	79.09					0.65		0.12			0.077		6.09	
C=C(C)C(=O)N=c1ccn(-c2ccccc2)nc1 [Example 12, 1,4-dihydro-4-methacryloylimino-1-phenylpyridazine]	34.09					2.27		0.98			0.022		0.75	
O=C(N=c1ccn(-c2ccccc2)nc1)c1ccc(F)cc1 [Example 14, 1,4-dihydro-4-(4-fluorobenzoyl)-imino-1-phenylpyridazine hydrochloride]	23.81					1.19		0.73			0.042		1	factor by which the hypertensive dose (ED 20%) is smaller than the antidepressive effective dose (ED 50%) [1]: 24
O=C(N=c1ccn(-c2ccccc2)nc1)c1cc(Cl)cc(Cl)c1 [Example 15, 4-(3,5-dichlorobenzoyl)-imino-1,4-dihydro-1-phenylpyridazine]		< 0.27		< 0.04			0.27		> 10			2.7		
O=C(N=c1ccn(-c2ccccc2)nc1)c1ccccc1 [Example 16, 4-benzoylimino-1,4-dihydro-1-phenylpyridazine]	28.91					1.09		0.55			0.046		1.33	
O=C(N=c1ccn(-c2ccccc2)nc1)c1ccccc1Cl [Example 17]	60.00					1.09		0.27			0.046		2.76	
O=C(N=c1ccn(-c2ccccc2)nc1)c1ccc(Cl)cc1 [Example 19]		< 0.14		< 0.04			0.54		> 10			1.35		
O=C(N=c1ccn(-c2ccccc2)nc1)c1ccc(Cl)cc1Cl [Example 20]		< 0.11		< 0.04			0.67		> 10			1.1		
O=C(N=c1ccn(-c2ccccc2)nc1)c1ccc(Cl)c(Cl)c1 [Example 22]		0.67		0.08			0.24		4.64			3.1		
Cc1cccc(C(=O)N=c2ccn(-c3ccccc3)nc2)c1 [Example 23]		0.98		0.37			0.74		1			0.98		
O=C(N=c1ccn(-c2ccccc2)nc1)c1cccc(C(F)(F)F)c1 [Example 26]		0.70		0.08			0.22		4.64			3.26		
CC1(C(=O)N=c2ccn(-c3ccccc3)nc2)CCCCC1 [Example 28]			5.80		0.50		1.26			0.1		0.58		
CCOC(=O)N=c1ccn(-c2ccccc2)nc1 [Example 29, 1,4-dihydro-4-(ethoxycarbonyl)-imino-1-phenylpyridazine hydrochloride]			4.00		0.23		0.85			0.215		0.86		
COC(=O)[C@H]1[C@H]2C[C@@H]3c4[nH]c5cc(OC)ccc5c4CCN3C[C@H]2C[C@@H](OC(=O)c2cc(OC)c(OC)c(OC)c2)[C@@H]1OC [Reserpine, reference compound]														reduction of body temperature ([2]; 2.15 mg/kg s.c., 2 hours after administration, ambient 20° to 22° C., average): 3 °C
